Data on 7 compounds can be found in patent US20260209171A1, “CATIONIC LIPIDS AND MANUFACTURING METHOD THEREFOR” (SAMYANG HOLDINGS CORPORATION, priority 2022, published 2026).

Series [1] can be described thus: Particle characteristics of the prepared formulation by particle size analyzer (Dynamic Light Scattering, DLS). It counts as physicochemical. Particulars: mRNA formulation, compound:DOPE:Cholesterol:DMG-PEG=50:10:38.5:1.5, N/P ratio 6; for PDI (PI) / Z-average: DLS. Here is the method: (§1) According to the following table 1, the materials required for preparing the formulation were dissolved in each dilution solvent and prepared at the required concentration. When dissolving, the materials were kept at room temperature and then the solvent was added to dissolve them.
(§2) The required amounts of the raw materials were mixed in order to meet the N/P ratio (amine group of lipid/phosphate group of mRNA) of 6 and each compound of formulas A to G:DOPE:Cholesterol:DMG-PEG=50:10:38.5:1.5. Ethanol was added to the ethanol layer so that the molecular total of all raw materials was within 12.5 mM, and the aqueous phase and ethanol phase were mixed maintaining a volume ratio of 3:1. After the mixing, to reduce the total ethanol content, buffer exchange was performed as follows: The mixture solution was concentrated by centrifugation at 4,000 rpm using an Amicon-Ultra tube filter (Merk Millipore, UFC505096 or UFC805024, pore size: 50K, volume: 15 mL), then diluted with PBS and centrifuged to concentrate. This process was repeated to exchange the buffer.
(§3) The more concrete procedure is as follows: • 1) Two autoclaved tubes were prepared (tubes (A) and (B)). • 2) In tube (A), each compound of formulas A to G, DOPE, cholesterol and DMG-PEG in molar quantities calculated according to the experimental conditions were sequentially added and mixed by vortexing. • 3) In the ethanol phase, when necessary, ethanol was added so that the molecular total of all raw materials was within 12.5 mM. • 4) In tube (B), mRNA and 20 mM sodium acetate buffer (pH 4.6) were mixed. At that time, the ratio was calculated and added so that the aqueous phase was total three times the amount of the ethanol phase. • 5) Mixing of Tube (A) and Tube (B) was performed using a Microfluidics (Ignite, Precision Nanosystem) device. Microfluidics operating conditions were FRR (Flow Rate Ratio) of C:R=3:1 and […] (Total Flow Rate) of 12 mL/min. • 6) The resulting mixture from step 5) was centrifuged at 4,000 rpm using an Amicon-Ultra tube filter (50K), and the process of concentration and dilution was repeated to remove excess ethanol, and then concentrated to a final x mg/ml (theoretical concentration).
(§4) • 1) For the prepared formulation, particle characteristics were confirmed using a particle size analyzer (Dynamic Light Scattering, DLS), and the results are shown in Table 2 below. • 2) For the prepared formulation, mRNA encapsulation efficiency was confirmed through Ribo-green assay, and the results are shown in Table 1 below.

A short description of series [2]: mRNA encapsulation efficiency by Ribo-green assay. Particulars: mRNA formulation, compound:DOPE:Cholesterol:DMG-PEG=50:10:38.5:1.5, N/P ratio 6. It counts as physicochemical. Here is the method: as §1, §2, §3, §4

Take `CCCCCCCCC(OC(=O)CCCCCCCN(C)CCCCCCCC(=O)OC(CCCCCCCC)C1CC1)C1CC1` (centres unmarked) [Formula A]: in series [1], the Zeta-potential was −10.96 ± 2.69 mV, the “PDI (PI)” value came to 0.09 ± 0.01 and the Z-average was 135.0 ± 0.46 nm.
As to `CCCCCCC(OC(=O)CCCCCN(C)CCCCCC(=O)OC(CCCCCC)C1CC1)C1CC1` (centres unmarked) [Formula B], in series [1], the Zeta-potential was −4.30 ± 3.03 mV, the “PDI (PI)” value worked out at 0.12 ± 0.03 and the Z-average stood at 183.3 ± 2.86 nm.
On to `CCCCCCCCCCC(OC(=O)CCCCCCCN(C)CCCCCCCC(=O)OC(CCCCCCCCCC)C1CC1)C1CC1` (centres unmarked) [Formula C], for which, in series [1], the Zeta-potential is on record as −7.57 ± 4.12 mV, the “PDI (PI)” value turned out to be 0.12 ± 0.00 and the Z-average was 120.0 ± 2.38 nm. Also, the Encapsulation efficiency in series [2] stood at 95.4 ± 0.2%.
For `CCCCCCCCC(OC(=O)CCCCCCCN(C)CCCCCCCC(=O)OC(CCCCCCCC)C1CCCCC1)C1CCCCC1` (centres unmarked) [Formula D], in series [1], the Zeta-potential is recorded as −2.37 ± 0.39 mV, the “PDI (PI)” value stood at 0.07 ± 0.04 and the Z-average is reported as 154.6 ± 2.75 nm. Further, in series [2], the Encapsulation efficiency turned out to be 97.6 ± 0.2%.
For the compound `CCCCCCCCC(OC(=O)CCCCCCCN(CCO)CCCCCCCC(=O)OC(CCCCCCCC)C1CC1)C1CC1` (centres unmarked) [Formula E], in series [1], the Zeta-potential is given as −4.69 ± 1.56 mV, the “PDI (PI)” value amounted to 0.10 ± 0.04 and the Z-average was determined as 127.4 ± 0.52 nm. In series [2], the Encapsulation efficiency is reported as 98.4 ± 0.5%.
The matching figures for `CCCCCCCCC(C(=O)OCCCCCCCN(C)CCCCCCCOC(=O)C(CCCCCCCC)C1CC1)C1CC1` (centres unmarked) [Formula F]: −6.24 ± 3.13 mV, 0.12 ± 0.02, 131.5 ± 0.12 nm and 91.1 ± 0.2%.
With `CCCCCCC(OC(=O)CCCCCCCN(C)CCCCCCCC(=O)OC(CCCCCC)C1CC1)C1CC1` (centres unmarked) [Formula G], in series [1], the Zeta-potential was −6.93 ± 1.48 mV, the “PDI (PI)” value worked out at 0.17 ± 0.02 and the Z-average was 194.9 ± 3.59 nm. In series [2], the Encapsulation efficiency turned out to be 92.1 ± 0.1%.
